16 compounds from BindingDB's records for PubMed 8102785 (University of Pennsylvania, 1993) can be followed below.

This assay has as its target Somatostatin receptor type 4 (Rattus norvegicus, UniProt P30937).

pKi: −log10 of the molar value. Where a SMILES comes first, the peptide text is derived from it. Bridges are numbered along the chain shown (N, C = ends). [ ]: non-standard residue; d: D form. The star is where a group is joined. NH(1-naphthylmethyl) = c1ccc2c(CN*)cccc2c1; Phe(4-Cl) = N[C@@H](Cc1ccc(Cl)cc1)C(=O)O; 2Nal = N[C@@H](Cc1ccc2ccccc2c1)C(=O)O; 1Nal = N[CH](Cc1cccc2ccccc12)C(=O)O; dNMeF = CN[C@H](Cc1ccccc1)C(=O)O; Thr(ol) = C[CH](O)[CH](N)CO; dNMeA = CN[C@H](C)C(=O)O; Abu = CC[C@H](N)C(=O)O; Aoc = NCCCCCCCC(=O)O; Ahp = NCCCCCCC(=O)O; Ahx = NCCCCCC(=O)O; Bn = c1ccc(C*)cc1

The pKi is the negative decadic logarithm of the Ki, by convention in mol/L.

Chain of Somatostatin receptor type 4 (P30937 whole entry): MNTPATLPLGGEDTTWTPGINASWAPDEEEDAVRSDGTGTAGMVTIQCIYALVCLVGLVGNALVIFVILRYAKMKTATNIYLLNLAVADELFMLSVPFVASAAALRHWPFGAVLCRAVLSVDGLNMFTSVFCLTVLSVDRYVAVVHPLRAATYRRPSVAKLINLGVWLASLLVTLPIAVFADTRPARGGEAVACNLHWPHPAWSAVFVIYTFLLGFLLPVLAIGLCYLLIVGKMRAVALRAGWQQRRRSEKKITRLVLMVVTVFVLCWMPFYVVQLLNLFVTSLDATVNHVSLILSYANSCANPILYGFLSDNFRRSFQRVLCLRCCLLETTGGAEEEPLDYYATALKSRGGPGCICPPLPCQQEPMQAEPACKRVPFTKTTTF

Take `CC[C@@H]1NC(=O)[C@H](CCCCN)NC(=O)[C@@H](Cc2c[nH]c3ccccc23)NC(=O)[C@H](Cc2ccc(O)cc2)NC(=O)[C@@H](NC(=O)[C@H](N)Cc2ccccc2)CSSC[C@@H](C(=O)N[C@@H](Cc2ccc3ccccc3c2)C(N)=O)NC1=O` [D-Phe-Cys-Tyr-D-Trp-Lys-Abu-Cys-Nal-NH] (H-[dF]CY[dW]K[Abu]C[2Nal]-NH2; disulfide 2-7): the pKi is 8.22.

Compound `CC[C@@H]1NC(=O)[C@H](CCCCN)NC(=O)[C@@H](Cc2c[nH]c3ccccc23)NC(=O)[C@H](Cc2ccc(O)cc2)NC(=O)[C@@H](NC(=O)[C@H](N)Cc2ccccc2)CSSC[C@@H](C(=O)N[C@H](C(N)=O)[C@@H](C)O)NC1=O` [D-Phe-L-Cys(1)-L-Tyr-D-Trp-L-Lys-L-Abu-L-Cys(1)-L-Thr-NH2] had a pKi of 9.74.

Turning to `CC(C)[C@H](NC(=O)[C@H](CCCCN)NC(=O)[C@@H](Cc1c[nH]c2ccccc12)NC(=O)[C@H](Cc1ccc(O)cc1)NC(=O)[C@H](Cc1ccccc1)NC(=O)[C@H](N)Cc1ccccc1)C(=O)N[C@@H](Cc1ccccc1)C(=O)N[C@H](Cc1ccccc1)C(N)=O` [D-Phe-Phe-Tyr-D-Trp-Lys-Val-Phe-D-Phe-NH2] (H-[dF]FY[dW]KVF[dF]-NH2), the pKi was 8.48.

Compound `CC(C)C1NC(=O)C(CCCCN)NC(=O)C(Cc2c[nH]c3ccccc23)NC(=O)C(Cc2ccc(O)cc2)NC(=O)C(NC(=O)C(N)Cc2cccc3ccccc23)CSSCC(C(=O)NC(CO)C(C)O)NC1=O` (stereo unspecified) [DC23-60] (H-[1Nal]CYWKVC[Thr(ol)]; disulfide 2-7; configuration not given here) gave a pKi of 8.82.

The compound `C[C@@H](O)[C@@H]1NC(=O)[C@H](CCCCN)NC(=O)[C@@H](Cc2c[nH]c3ccccc23)NC(=O)[C@H](Cc2c[nH]c3ccccc23)NC(=O)[C@H](Cc2ccccc2)NC(=O)CCCCCCNC(=O)[C@H](Cc2ccccc2)NC1=O` [L-362855] (cyclo([Ahp]FW[dW]KTF)) gave a pKi of 11.30.

The compound `C[C@@H](O)[C@@H]1NC(=O)[C@H](CCCCN)NC(=O)[C@@H](Cc2c[nH]c3ccccc23)NC(=O)[C@H](Cc2ccccc2)NC(=O)[C@H](Cc2ccc(Cl)cc2)NC(=O)CCCCCCNC(=O)[C@H](Cc2ccccc2)NC1=O` [L-362862] (cyclo([Ahp][Phe(4-Cl)]F[dW]KTF)) had a pKi of 9.33.

`CC(C)[C@H](NC(=O)[C@H](CCCCN)NC(=O)[C@@H](Cc1c[nH]c2ccccc12)NC(=O)[C@H](Cc1ccc(O)cc1)NC(=O)[C@H](C)NC(=O)[C@H](N)Cc1ccccc1)C(=O)N[C@@H](C)C(=O)N[C@@H](Cc1ccc2ccccc2c1)C(N)=O` [L-Alaninamide,D-phenylalanyl-L-alanyl-L-tyrosyl-D-tryptophyl-L-lysyl-L-valyl-L-alanyl-3-(2-naphthalenyl)-(9CI)] (H-[dF]AY[dW]KVA[2Nal]-NH2) gave a pKi of 7.54.

`C[C@H](O)[C@H]1NC(=O)[C@H](CCCCN)NC(=O)[C@@H](Cc2c[nH]c3ccccc23)NC(=O)[C@@H](Cc2ccccc2)NC(=O)[C@@H](C)N(C)C(=O)[C@@H](Cc2ccccc2)N(C)C1=O` [N-Methylcyclo(D-Ala-D-Phe-D-Trp-L-Lys-D-Thr-N-methyl-D-Phe-)] (cyclo(K[dT][dNMeF][dNMeA][dF][dW])) had a pKi of 6.39.

With `NCCCCC1NC(=O)C(Cc2c[nH]c3ccccc23)NC(=O)C(Cc2ccc(O)cc2)NC(=O)C(NC(=O)C(N)Cc2ccccc2)CSSCC(C(=O)NCc2cccc3ccccc23)NC(=O)C(CO)NC1=O` (stereo unspecified) [NC4-28B] (H-FCYWKSC-{NH(1-naphthylmethyl)}; disulfide 2-7; configuration not given here), the pKi is 9.00.

In turn, `CC(O)[C@@H]1NC(=O)[C@@H](CCCCN)NC(=O)[C@H](Cc2c[nH]c3ccccc23)NC(=O)[C@@H](Cc2ccccc2)NC(=O)[C@H](Cc2ccccc2)NC(=O)[C@@H](CC(N)=O)NC(=O)[C@H](CCCCN)NC(=O)[C@@H](NC(=O)CNC(=O)[C@H](C)N)CSSC[C@H](C(=O)O)NC(=O)[C@@H](CO)NC(=O)[C@H]([C@@H](C)O)NC(=O)[C@@H](Cc2ccccc2)NC1=O` (stereo partly drawn) [SRIF-D-Trp8] had a pKi of 11.70.

In turn, `NCCCC[C@@H]1NC(=O)[C@@H](Cc2c[nH]c3ccccc23)NC(=O)[C@H](Cc2ccccc2)NC(=O)CCCCCCNC(=O)[C@H](COCc2ccccc2)NC1=O` [c[Aha-Phe-D-Trp-Lys-Ser(Bzl)]] (cyclo([Ahp]F[dW]KS(Bn))) showed a pKi of 6.73.

`C[C@@H](Oc1ccccc1)[C@@H]1NC(=O)[C@H](CCCCN)NC(=O)[C@@H](Cc2c[nH]c3ccccc23)NC(=O)[C@H](Cc2ccccc2)NCCCCCCNC1=O` [c[Aha-Phe-D-Trp-Lys-Thr(Bzl)]]: the pKi was 7.29.

As to `C[C@@H](O)[C@@H]1NC(=O)[C@H](CCCCN)NC(=O)[C@@H](Cc2c[nH]c3ccccc23)NC(=O)[C@H](Cc2ccccc2)NC(=O)CCCCCCNC1=O` [c[Aha-Phe-D-Trp-Lys-Thr]] (cyclo([Ahp]F[dW]KT)), the pKi was 6.00.

Turning to `C[C@@H](OCc1ccccc1)[C@@H]1NC(=O)[C@H](CCCCN)NC(=O)[C@@H](Cc2c[nH]c3ccccc23)NC(=O)[C@H](Cc2ccccc2)NC(=O)CCCCCNC1=O` [c[Ahx-Phe-D-Trp-Lys-Thr(Bzl)]] (cyclo([Ahx]F[dW]KT(Bn))), the pKi is 7.47.

`C[C@@H](OCc1ccccc1)[C@@H]1NC(=O)[C@H](CCCCN)NC(=O)[C@@H](Cc2c[nH]c3ccccc23)NC(=O)[C@H](Cc2ccccc2)NC(=O)CCCCCCCNC1=O` [c[Aoc-Phe-D-Trp-Lys-Thr(Bzl)]] (cyclo([Aoc]F[dW]KT(Bn))) had a pKi of 7.30.

`CSCC[C@H](NC(=O)[C@H](C)NC(=O)[C@@H]1CCCN1C(=O)[C@H](CC(N)=O)NC(=O)[C@H](CO)NC(=O)[C@H](CC(N)=O)NC(=O)[C@H](C)NC(=O)[C@@H](N)CO)C(=O)N[C@@H](C)C(=O)N1CCC[C@H]1C(=O)N[C@@H](CCCNC(=N)N)C(=O)N[C@@H](CCC(=O)O)C(=O)N[C@@H](CCCNC(=N)N)C(=O)N[C@@H](CCCCN)C(=O)N[C@@H](C)C(=O)NCC(=O)N[C@H]1CSSC[C@@H](C(=O)O)NC(=O)[C@H](CO)NC(=O)[C@H]([C@@H](C)O)NC(=O)[C@H](Cc2ccccc2)NC(=O)[C@H]([C@@H](C)O)NC(=O)[C@H](CCCCN)NC(=O)[C@H](Cc2c[nH]c3ccccc23)NC(=O)[C@H](Cc2ccccc2)NC(=O)[C@H](Cc2ccccc2)NC(=O)[C@H](CC(N)=O)NC(=O)[C@H](CCCCN)NC1=O` [somatostatin-28] had a pKi of 9.64.
